This is an account of results in ChEMBL document CHEMBL1155747, “Cytotoxic diacetylenes from the stony coral Montipora species” (2001).

Structures are written as SMILES. ≈ marks a conversion by molar mass, not a printed value.

Format in all cases: functional
The test system of one assay is A549. The experiment in a line: Cytotoxicity against human A549 cells. As to conditions: read-out: ED50 (the source's name).
The test system of a further assay is SK-OV-3. The experiment in a line: Cytotoxicity against human SKOV3 cells. Conditions: read-out: ED50 (the source's name).
A further assay deals with SK-MEL-2. The experiment in a line: Cytotoxicity against human SK-MEL-2 cells. Conditions: read-out: ED50 (the source's name).
The subject of a further assay is XF498. Description: Cytotoxicity against human XF498 cells. Conditions: read-out: ED50 (the source's name).
Another assay deals with HCT-15. Description: Cytotoxicity against human HCT15 cells. Conditions: read-out: ED50 (the source's name).
Another assay concerns HCT-116. The experiment in a line: Inhibition of cell cycle in human HCT116 cells assessed as increase in apoptotic fraction at 100 ug/mL after 24 hrs by flow cytometry. Set-up: scale not given: the % may be the effect or the level left. A general note: In flow cytometry, cells or beads pass a laser one at a time.

In the case of `C=CCCCCCC#CC#CCOCC(=O)[O-].[Na+]` [MONTIPORIC AICD C], the EC50 in the assay with A549, with SK-OV-3, in the assay with SK-MEL-2, in the assay on XF498 and in the assay on HCT-15 was above 30 µg/mL each time.

`C=CCCCCCC#CC#CCO` [MONTIPORYNE G]: the EC50 in the assay with A549 is 13.8 µg/mL (≈ 78.2 µM); with SK-OV-3, 9.79 µg/mL (≈ 55.5 µM); in the assay with SK-MEL-2 it was 9.56 µg/mL (≈ 54.2 µM); with XF498, 10.8 µg/mL (≈ 61.2 µM); in the assay on HCT-15, 12.9 µg/mL (≈ 73.4 µM).

`C=CCCCCCCCC#CC#CCOCC(=O)[O-].[Na+]`: the EC50 came to 6.26 µg/mL with A549; 4.88 µg/mL in the assay with SK-OV-3; 4.68 µg/mL in the assay on SK-MEL-2; 4.96 µg/mL in the assay on XF498; 4.47 µg/mL in the assay on HCT-15.

For `C=CCCCCCC#CC#CC(O)CC(C)=O` (racemic), the EC50 in the assay on A549 came out at 4.97 µg/mL (≈ 21.4 µM); in the assay with SK-OV-3, 3.85 µg/mL (≈ 16.6 µM); in the assay on SK-MEL-2 it was 3.74 µg/mL (≈ 16.1 µM); with XF498, 3.87 µg/mL (≈ 16.7 µM); with HCT-15, 3.42 µg/mL (≈ 14.7 µM).

Consider `C=CCCCCCCCC#CC#CCOCC(=O)OC` [METHYLMONTIPORATE B], for which the EC50 with A549, with SK-OV-3, with SK-MEL-2, in the assay on XF498 and in the assay on HCT-15 was above 30 µg/mL each time.

`C=CCCCCCCCC#CC#CC(O)CC(C)=O` (racemic) [MONTIPORYNE K]: the EC50 in the assay with A549 came out at 4.91 µg/mL (≈ 18.9 µM); in the assay with SK-OV-3, 3.34 µg/mL (≈ 12.8 µM); in the assay on SK-MEL-2, 3.52 µg/mL (≈ 13.5 µM); with XF498 it was 4.45 µg/mL (≈ 17.1 µM); in the assay with HCT-15 it was 4.18 µg/mL (≈ 16.1 µM).

`CCCCCCCC#CC#CCOCC(=O)OC` [METHYLMONTIPORATE A]: the EC50 was above 30 µg/mL with A549; 20.5 µg/mL (≈ 82 µM) in the assay with SK-OV-3; above 30 µg/mL in the assay on SK-MEL-2; above 30 µg/mL in the assay with XF498; 25.6 µg/mL (≈ 102 µM) in the assay on HCT-15.

As to `C=CCCCCCC#CC#C/C=C\C(C)=O`, the EC50 is above 30 µg/mL in the assay on A549; 5.23 µg/mL (≈ 24.4 µM) with SK-OV-3; 4.61 µg/mL (≈ 21.5 µM) in the assay on SK-MEL-2; 29.2 µg/mL (≈ 136 µM) in the assay with XF498; 11.3 µg/mL (≈ 52.7 µM) with HCT-15.

In the case of `COc1cccc2c1C(=O)c1c(O)c3c(c(O)c1C2=O)C[C@@](O)(C(=O)CO)C[C@@H]3O[C@H]1C[C@H](N)[C@H](O)[C@H](C)O1` [DOXORUBICIN], the EC50 amounted to 0.02 µg/mL (≈ 0.0368 µM) in the assay with A549; 0.13 µg/mL (≈ 0.239 µM) in the assay on SK-OV-3; 0.03 µg/mL (≈ 0.0552 µM) in the assay with SK-MEL-2; 0.08 µg/mL (≈ 0.147 µM) with XF498; 0.04 µg/mL (≈ 0.0736 µM) in the assay on HCT-15.

`C=CCCCCCC#CC#C/C=C/C(C)=O`: the EC50 with A549 was determined as 6.39 µg/mL (≈ 29.8 µM); with SK-OV-3, 3.52 µg/mL (≈ 16.4 µM); in the assay with SK-MEL-2, 4.21 µg/mL (≈ 19.6 µM); with XF498, 5.5 µg/mL (≈ 25.7 µM); in the assay with HCT-15, 4.56 µg/mL (≈ 21.3 µM).

On to `C=CCCCCCC#CC#CCOCCO` [MONTIPORYNE H], for which the EC50 in the assay on A549 came to 22.7 µg/mL (≈ 103 µM); in the assay with SK-OV-3 it was 17.9 µg/mL (≈ 81.4 µM); in the assay on SK-MEL-2 it was 25.1 µg/mL (≈ 114 µM); in the assay with XF498, 16.9 µg/mL (≈ 76.6 µM); with HCT-15 it was 24.1 µg/mL (≈ 109 µM).

Turning to `CCCCCCCC#CC#C/C=C/C(C)=O` [MONTIPORYNE A], in the assay on HCT-116, the Activity worked out at 19%.

For the compound `C=CCCCCCCCC#CC#CCO`, the EC50 with A549 turned out to be 3.9 µg/mL (≈ 19.1 µM); with SK-OV-3, 3.23 µg/mL (≈ 15.8 µM); in the assay with SK-MEL-2, 3.94 µg/mL (≈ 19.3 µM); in the assay on XF498, 5.26 µg/mL (≈ 25.7 µM); with HCT-15 it was 3.32 µg/mL (≈ 16.2 µM).

On to `CCCCCCCC#CC#CCO`, for which the EC50 in the assay on A549 amounted to 5.48 µg/mL (≈ 30.7 µM); in the assay on SK-OV-3 it was 4.63 µg/mL (≈ 26 µM); in the assay with SK-MEL-2, 4.45 µg/mL (≈ 25 µM); with XF498, 5.59 µg/mL (≈ 31.4 µM); in the assay on HCT-15, 5.9 µg/mL (≈ 33.1 µM).

Take `CCCCCCCC#CC#CC(O)CC(C)=O` (racemic) [MONTIPORYNE I]: the EC50 with A549 is 4.17 µg/mL (≈ 17.8 µM); in the assay on SK-OV-3 it was 1.81 µg/mL (≈ 7.72 µM); in the assay with SK-MEL-2, 1.4 µg/mL (≈ 5.97 µM); with XF498, 3.7 µg/mL (≈ 15.8 µM); in the assay on HCT-15 it was 3.73 µg/mL (≈ 15.9 µM).

`CCCCCCCC#CC#CCOCC(=O)[O-].[Na+]` [MONTIPORIC ACID A SODIUM SALT]: the EC50 with A549 amounted to 6.31 µg/mL; in the assay on SK-OV-3 it was 7.5 µg/mL; in the assay on SK-MEL-2 it was 7.97 µg/mL; with XF498, 7.72 µg/mL; in the assay on HCT-15 it was 8.3 µg/mL.
